What is called pEC50 is the EC50 on a negative log10 scale, so that one unit is a factor of ten. A low value points to a high EC50. The term inhibition denotes the relative decrease from the control value, in per cent. In general, IC50 refers to the midpoint of a concentration-inhibition curve.

The values below come from patent EP1295874A2, “Retroviral protease inhibiting compounds” (Abbott Laboratories, priority 1995, dated 1997).

pEC50: −log10 of the molar value. Read-outs that look alike come from different tables or passages of the source.

In data set [1] the test system is HIV Selected In Vitro by the Compound of Example 2B. The experiment in a line: microbe, parasite or virus in culture. It counts as cell-based.
A further data set concerns the target T1, HIV protease (Human immunodeficiency virus type 1 group M subtype B, UniProt P04585).
T1 construct: HIV protease consists of two identical subunits, each of which has 99 amino acid residues
Briefly: Fluorogenic Assay for Screening Inhibitors of HIV Protease. In kind it is biochemical. The following applies: read-out: Percent Inhibition. As for the experimental part: The inhibitory potency of the compound of the invention can be determined by the following method.
The compound of the invention is dissolved in DMSO and a small aliquot further diluted with DMSO to 100 times the final concentration desired for testing. The reaction is carried out in a 6 X 50 mm tube in a total volume of 300 microliters. The final concentrations of the components in the reaction buffer are: 125 mM sodium acetate, 1 M sodium chloride, 5 mM dithiothreitol, 0.5 mg/ml bovine serum albumin, 1.3 µM fluorogenic substrate, 2% (v/v) dimethylsulfoxide, pH 4.5. After addition of inhibitor, the reaction mixture is placed in the fluorometer cell holder and incubated at 30°C for several minutes. The reaction is initiated by the addition of a small aliquot of cold HIV protease. The fluorescence intensity (excitation 340 nm, emmision 490 nM) is recorded as a function of time. The reaction rate is determined for the first six to eight minutes. The observed rate is directly proportional to the moles of substrate cleaved per unit time. The percent inhibition is 100 X (1 - (rate in presence of inhibitor)/(rate in absence of inhibitor)).
Fluorogenic substrate: Dabcyl-Gaba-Ser-Gln-Asn-Tyr-Pro-lle-Val-Gln-EDANS wherein DABCYL = 4-(4-dimethylamino-phenyl)azobenzoic acid, Gaba = γ-aminobutyric acid, and EDANS = 5-((2-aminoethyl)amino)-naphthalene-1-sulfonic acid.

The next data set has as its system HIVIIIB. Briefly: Antiviral activity (anti-HIV activity) in MT4 cells, MTT readout. In kind it is cell-based. As to conditions: Human immunodeficiency virus 1, MT4, 120 h, read-out: IC50 (µM, 0% plasma). The source says:
(§1) The anti-HIV activity of the compound of the invention can be determined in MT4 cells according to the following procedure. MT4 cells were infected with cell-free supernatant of HIVIIIB (previously frozen with known 50% tissue culture infectious dose (TCID50) at 0.003 multiplicity of infection (MOI) for one hour. After one hour infection, cells were washed twice to remove residual viruses, resuspended in culture media and seeded into 96-well tissue culture plates at 1x10^4 cells per well with various half-log dilutions of compounds. Uninfected cells are included as toxicity and cell controls. RPMI 1640 media (Gibco ) with 10% fetal bovine serum were used as culture media. Various concentrations of human serum (Sigma) 50%, 25% and 12.5% were added to culture media resulting in final concentration of 60%, 35% and 22.5% total serum. All assay plates were incubated in 37 deg. cent. incubator for 5 days. MTT (sigma, 5 mg/ml stock in PBS) was added to all wells at 25 ul per well, incubate for 4 hours. 20%SDS with 0.02 N HCl in water was added at 50 ul per well to lyse cellls. Plates incubated overnight for complete lyses were read on a microtitre plate reader at 570/650 nm wavelengths to determine cell optical density (O.D.). Raw data were analysed for percent inhibition by the following formula: (O.D. test well - O.D. virus control)/(O.D. cell control -O.D. virus control)x100 [formula] The 50% effective concentration (EC50) was calculated by the median effect equation (Chou, 1975,Proc. Int. Cong. Pharmacol. 6th p. 619) to determine the efficacy of compound. The 50% lethal concentration (LC50) was calculated using uninfected MT4 cells.
(§2) Under these conditions, the following data were obtained (n = 4 duplicate determinations: Table 2

The nature of data set [2]: 50% lethal concentration in uninfected MT4 cells (MTT). The following applies: human, read-out: LC50. It counts as cell-based.
From the text: as §1, §2

The mark [3] stands for this setting: Human immunodeficiency virus 1, NL43, Virus NL4-3.
Where [4] appears, read: Human immunodeficiency virus 1, Virus P7.
[5] abbreviates: Human immunodeficiency virus 1, Virus P11.
The mark [6] stands for this setting: Human immunodeficiency virus 1, Virus P14.
The mark [7] stands for this setting: Human immunodeficiency virus 1, Virus P17.
Setting [8] is: Inhibitor Concentration 0.5 nanomolar.

As to `CC(C)(C)NC(=O)[C@@H]1C[C@@H]2CCCC[C@@H]2CN1C[C@@H](O)[C@H](Cc1ccccc1)NC(=O)[C@H](CC(N)=O)NC(=O)c1ccc2ccccc2n1` [Saquinavir, N-tert-butyl-decahydro-2-[2(R)-hydroxy-4-phenyl-3(S)-[[N-(2-quinolylcarbonyl)-L-asparaginyl]amino]butyl]-(4aS,8aS)-isoquinoline-3(S)-carboxamide], the pEC50 in data set [1] (setting [3]) is 7.70; in data set [1] (setting [4]), 7.48; in data set [1] (setting [5]), 7.24; in data set [1] (setting [6]), 7.32; in data set [1] (setting [7]) it was 7.09. Further, the “fold change in EC50” value in data set [1] (all of the passaged virus (P7, P11, P14, P17)) is given as not above 4 fold.
Take `CC(C)(C)NC(=O)[C@@H]1CN(Cc2cccnc2)CCN1C[C@@H](O)C[C@@H](Cc1ccccc1)C(=O)N[C@H]1c2ccccc2C[C@H]1O` [Indinavir, N-(2(R)-hydroxy-1 (S)-indanyl)-2(R)-phenylmethyl-4(S)-hydroxy-5-(1-(4-(3-pyridylmethyl)-2(S)-N'-(t-butylcarboxamido)-piperazinyl))-pentaneamide]: the pEC50 in data set [1] (setting [3]) is 7.17; in data set [1] (setting [4]) it was 6.95; in data set [1] (setting [5]), 6.82; in data set [1] (setting [6]) it was 6.37; in data set [1] (setting [7]), 5.87. The “resistance (fold)” value in data set [1] (P17 virus) was found to be 20 fold.
Regarding `Cc1cc(N)cc(C)c1OCC(=O)N[C@@H](Cc1ccccc1)[C@@H](O)C[C@H](Cc1ccccc1)NC(=O)[C@H](C(C)C)N1CCNC1=O` [Example 10F, (2S,3S,5S)-2-(4-Amino-2,6-dimethylphenoxyacetyl) amino-3-hydroxy-5-(2S-(1-imidazolidin-2-onyl)-3-methyl-butanoyl) amino-1,6-diphenylhexane], the inhibition at 0.0005 µM on HIV protease (setting [8]) is 81%. Further, in the data set on HIVIIIB, the IC50 stood at 0.047 µM. Also, the CC50 at 120 h in data set [2] came out at 92000 nM.
On to `Cc1cccc(C)c1OCC(=O)N[C@@H](Cc1ccccc1)[C@@H](O)C[C@H](Cc1ccccc1)NC(=O)[C@H](C(C)C)N1CCNC1=O` [Example 1P, (2S, 3S, 5S)-2-(2,6-dimethylphenoxyacetyl) amino-3-hydroxy-5-[2S-(1-imidazolidin-2-onyl)-3-methyl-butanoyl] amino-1,6-diphenylhexane], for which the inhibition at 0.0005 µM on HIV protease amounted to 92.6%. Besides, the IC50 in the data set on HIVIIIB stood at 0.01 µM. Also, the CC50 at 120 h in data set [2] amounted to 41300 nM.
On to `Cc1cc(F)cc(C)c1OCC(=O)N[C@@H](Cc1ccccc1)[C@@H](O)C[C@H](Cc1ccccc1)NC(=O)[C@H](C(C)C)N1CCNC1=O` [Example 12B, (2S,3S,5S)-2-(4-Fluoro-2,6-dimethylphenoxyacetyl) amino-3-hydroxy-5-(2S-(1-imidazolidin-2-onyl)-3-methyl-butanoyl) amino-1,6-diphenylhexane], for which the inhibition at 0.0005 µM on HIV protease (setting [8]) was determined as 76.8%. For the same compound, the IC50 in the data set with HIVIIIB is 0.093 µM. Besides, in data set [2], the CC50 at 120 h was 19100 nM.
The corresponding values for `CC(C)[C@@H](C(=O)N[C@@H](Cc1ccccc1)C[C@H](O)[C@H](Cc1ccccc1)NC(=O)O[C@H]1CO[C@H]2OCC[C@H]21)N1CCNC1=O` [Example 5, (2S,3S,5S)-2-[(3R,3aS,6aR)-Bis-tetrahydrofuranyloxy] amino-3-hydroxy-5-[2S-(1-imidazolidin-2-onyl)-3-methylbutanoyl] amino-1,6-diphenylhexane] are 80.8%, 0.368 µM and more than 100000 nM.
The corresponding values for `CC(C)[C@@H](C(=O)N[C@@H](Cc1ccccc1)C[C@H](O)[C@H](Cc1ccccc1)NC(=O)OCc1cncs1)N1CCNC1=O` [Example 6F, (2S,3S,5S)-2-(N-((5-Thiazolyl)methoxycarbonyl)amino)-5-((2S-(1-imidazolidin-2-onyl)-3-methyl-butanoyl)-amino)-3-hydroxy-1,6-diphenylhexane] are 61.4%, 0.193 µM and more than 100000 nM.
For `Cc1cccc(C)c1OCC(=O)N[C@@H](Cc1ccccc1)[C@@H](O)C[C@H](Cc1ccccc1)NC(=O)[C@H](C(C)C)N1CCOC1=O` [Example 3C, (2S, 3S, 5S)-2-(2,6-Dimethylphenoxyacetyl) amino-3-hydroxy-5-[2S-(3-oxazolidin-2-onyl)-3-methyl-butanoyl] amino-1,6-diphenylhexane] the same measures were 86.9%, 0.025 µM and 49500 nM.
In the case of `Cc1cccc(C)c1OCC(=O)N[C@@H](Cc1ccccc1)[C@@H](O)C[C@H](Cc1ccccc1)NC(=O)[C@H](C(C)C)N1CCC(=O)NC1=O` [Example 25E, (2S,3S,5S)-2-(2,6-Dimethylphenoxyacetyl) amino-3-hydroxy-5-[2S-(1-tetrahydro-pyrimid-2,4-dionyl)-3-methylbutanoyl]amino-1,6-diphenylhexane], the inhibition at 0.0005 µM on HIV protease (setting [8]) is 100%. For the same compound, in the data set with HIVIIIB, the IC50 came to 0.012 µM. In addition, the CC50 at 120 h in data set [2] was 22900 nM.
For `Cc1cccc(C)c1OCC(=O)N[C@@H](Cc1ccccc1)[C@@H](O)C[C@H](NC(=O)[C@H](C(C)C)N1CCC(=O)NC1=O)C(C)C` [Example 28, (2S,3S,5S)-2-(2,6-Dimethylphenoxyacetyl) amino-3-hydroxy-5-[2S-(1-tetrahydro-pyrimid-2,4-dionyl)-3-methylbutanoyl]amino-1-phenyl-6-methylheptane] the same measures were 86.6%, 0.011 µM and 72200 nM.
For `Cc1cccc(C)c1OCC(=O)N[C@@H](Cc1ccccc1)[C@@H](O)C[C@H](NC(=O)[C@H](C(C)C)N1CCCNC1=O)C(C)C` [Example 27D, (2S,3S,5S)-2-(2,6-Dimethylphenoxyacetyl) amino-3-hydroxy-5-[2S-(1-tetrahydro-pyrimid-2-onyl)-3-methylbutanoyl]amino-1-phenyl-6-methylheptane] the same measures were 92.9%, 0.03 µM and 56200 nM.
